The source made the active and inactive calls. The calls are words filed in the database; no cut-off is given here.
Experiments:
[1] = target: Human immunodeficiency virus type 1 integrase (Human immunodeficiency virus 1, UniProt Q7ZJM1); assay: Inhibition of recombinant HIV1 integrase strand transfer activity
[2] = system: Human immunodeficiency virus 1; assay: Antiviral activity against HIV1 3B infected in human MT4 cells after 24 hrs by p24 ELISA; assay type: functional; conditions: Human immunodeficiency virus 1, 3B, MT4, 24 h; read-out: CIC95
[3] = system: MT4; assay: Cytotoxicity against human MT4 cells at concentrations up to 20 uM; assay type: cell-based
[4] = Clearance in rat at 2 mg/kg, iv; assay type: ADME, organism-based; design: dose 2 mg/kg, route intravenous; conditions: in vivo
[5] = Half life in rat at 2 mg/kg, iv; assay type: ADME, organism-based; design: dose 2 mg/kg, route intravenous; conditions: in vivo
[6] = system: Human immunodeficiency virus 1; assay: Antiviral activity against HIV1 at concentrations upto 20 uM; assay type: functional, organism-based
[7] = physchem
Description: Dissociation constant, pKa of the compound

Human immunodeficiency virus type 1 integrase, sequence (Q7ZJM1 whole entry): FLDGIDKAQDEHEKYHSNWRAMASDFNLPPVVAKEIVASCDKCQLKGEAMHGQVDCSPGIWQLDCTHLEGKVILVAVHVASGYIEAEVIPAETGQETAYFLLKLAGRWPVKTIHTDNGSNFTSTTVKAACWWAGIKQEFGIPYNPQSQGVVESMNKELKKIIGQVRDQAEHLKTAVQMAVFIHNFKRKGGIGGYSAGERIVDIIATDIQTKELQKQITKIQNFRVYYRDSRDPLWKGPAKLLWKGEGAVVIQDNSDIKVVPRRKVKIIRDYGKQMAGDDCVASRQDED

Compound | IC50 [1] [nM] | clearance [4] [mL/min/kg] | half-life [5] [min] | pKa [7] | IC95 [2] [nM] | Activity [3] | Activity [6]
CNC(=O)c1cn2c(c1O)C(=O)N(Cc1ccc(Cl)cc1)CC2 | 60 | – | – | – | 2500 | – | –
CCOC(=O)c1cn2c(c1O)C(=O)N(Cc1cccc(F)c1)CC2 | 110 | – | – | – | 9380 | Non-toxic | –
CNC(=O)c1cn2c(c1O)C(=O)N(Cc1ccc(F)cc1)CC2 | 80 | – | – | – | 10000 | – | –
O=C(O)c1cn2c(c1O)C(=O)N(Cc1ccccc1)CC2 | 80 | – | – | 3.8 | > 20000 | – | inactive
CCOC(=O)c1cn2c(c1O)C(=O)N(Cc1ccc(F)cc1)CCC2 | > 5000 | – | – | – | – | – | –
CCOC(=O)c1cn2c(c1O)C(=O)N(Cc1ccccc1)CC2 | 220 | – | – | – | 20000 | Non-toxic | –
CCOC(=O)c1cn2c(c1O)C(=O)N(Cc1ccc(Cl)cc1)CC2 | 40 | – | – | – | 1020 | Non-toxic | –

Continued, in another order:

IC50 [1] [nM] | clearance [4] [mL/min/kg] | half-life [5] [min] | pKa [7] | Compound | IC95 [2] [nM] | Activity [3] | Activity [6]
40 | – | – | – | CNC(=O)c1cn2c(c1O)C(=O)N(Cc1ccc(Cl)c(Cl)c1)CC2 | 1250 | – | –
40 | – | – | – | CCOC(=O)c1cn2c(c1O)C(=O)N(Cc1ccc(F)cc1)CC2 | 3230 | Non-toxic | –
10 | 30 | 30 | – | CCOC(=O)c1cn2c(c1O)C(=O)N(Cc1ccc(Cl)c(Cl)c1)CC2 | 310 | Non-toxic | –
20 | – | – | – | CCOC(=O)c1cn2c(c1O)C(=O)N(Cc1ccc(F)c(Cl)c1)CC2 | 940 | Non-toxic | –
30 | – | – | – | CCOC(=O)c1cn2c(c1O)C(=O)N(Cc1cccc(Cl)c1)CC2 | 1250 | Non-toxic | –
10 | – | – | 3.8 | O=C(O)c1cn2c(c1O)C(=O)N(Cc1cccc(Cl)c1)CC2 | > 20000 | – | inactive
< 10 | – | – | – | CN1CCn2c3c(c(O)c2C1=O)C(=O)N(Cc1ccc(F)cc1)CC3 | 160 | – | –
< 10 | – | – | – | O=C1c2c(O)c3n(c2CCN1Cc1ccc(F)cc1)CCN(Cc1ccc(F)cc1)C3=O | 70 | – | –
< 10 | – | – | – | CN1CCc2c(c(O)c3n2CCN(Cc2ccc(F)cc2)C3=O)C1=O | 390 | – | –

— ChEMBL document CHEMBL1137622, “8-Hydroxy-3,4-dihydropyrrolo[1,2-a]pyrazine-1(2H)-one HIV-1 integrase inhibitors” (Bioorg Med Chem Lett, 2007)
